Results on 13 molecules are retold here after patent publication US7786107B2, “Modulators of muscarinic receptors” (Vertex Pharmaceuticals Incorporated, priority 2006, dated 2010).

One assay concerns the target T1, M1 muscarinic receptor (Homo sapiens, UniProt P11229).
T1 construct: expressed in transfected cells; host or cells: CHO
T1 sequence (P11229 1-460): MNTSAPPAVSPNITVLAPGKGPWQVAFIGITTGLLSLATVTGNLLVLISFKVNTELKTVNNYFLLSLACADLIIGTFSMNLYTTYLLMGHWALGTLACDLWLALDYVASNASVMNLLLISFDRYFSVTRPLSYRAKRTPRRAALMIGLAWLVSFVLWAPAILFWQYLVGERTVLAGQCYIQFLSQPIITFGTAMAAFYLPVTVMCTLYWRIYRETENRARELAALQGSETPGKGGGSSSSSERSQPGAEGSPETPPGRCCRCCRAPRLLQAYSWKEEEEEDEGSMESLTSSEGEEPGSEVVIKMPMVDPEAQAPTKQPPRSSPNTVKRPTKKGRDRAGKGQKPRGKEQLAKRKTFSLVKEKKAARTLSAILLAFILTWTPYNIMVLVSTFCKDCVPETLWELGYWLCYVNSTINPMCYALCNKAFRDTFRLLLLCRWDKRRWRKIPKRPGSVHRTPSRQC
Put plainly: Functional mobilization of intracellular calcium (FLIPR) in CHO cells expressing M1. In kind it is cell-based. The settings on record: for EC50: CHO cells expressing M1, calcium mobilization; for Emax: CHO, 100% efficacy is the maximum response obtained with the Carbachol control. The method, then:
(§1) Functional Mobilization of Intracellular Calcium to Determine Muscarinic Receptor Activity:
(§2) CHO cells expressing muscarinic receptors (M1 to M5) are grown as monolayers in tissue culture flasks at 37° C. in a humidified atmosphere containing 5% CO2 and passaged every 3-5 days. The growth media is Dulbecco's modified eagles medium (DMEM, Gibco Cat#12430-054), containing 25 mM Hepes and supplemented with Fetal Bovine Serum (Hyclone, Cat#SH30071.03), 0.1 mM of MEM non-essential amino acids (GIBCO, Cat#11140-050), 1 mM MEM Sodium Pyruvate (GIBCO Cat#11360-070) and 100 units/ml of Penicillin G and 100 μg/ml of Streptomycin (GIBCO Cat#15140-122). The recombinant muscarinic receptor cell lines are grown under antibiotic pressure with media containing 25 μg/ml zeocin and 500 μg/ml G418 (MI-CHO), 4 μg/ml puromycin, 50 μg/ml zeocin and 2.5 μg/ml blasticidin (M2 and M4-CHO) or 50 μg/ml zeocin and 4 μg/ml puromycin (M3 and M5-CHO).
(§3) Cells are harvested at 80-90% confluence using Versene (GIBCO Cat#15040-066), collected by centrifugation and seeded 18-24 hours prior to running the calcium assay at a density of 5,000-10,000 cells/well in […], clear-bottomed 384-well plates (BD Biocoat, poly-D-lysine, Cat#356663). The day of the experiment, the cells are washed with a plate washer (Bioteck Instruments, ELX 405) using bath 1 buffer (140-mM NaCl, 4.5-mM KCl, 2-mM CaCl2, 1-mM MgCl2, 10-mM Hepes-Na, 10-mM Glucose, pH 7.4, with NaOH) containing 1 mM Probenecid. Next, the calcium dye Fluo-3 (25 μl well of Fluo-3 AM at 4 μM, Molecular Probes F-1241, in Bath 1 buffer containing 1 mM Probenecid) is added to the 25 μl of Bath 1 remaining in each well after the plate wash and the dye is loaded at 37° C. in the tissue culture incubator for 60-90 min. The fluorescent dye is removed using the plate washer with Bath 1 containing 1 mM Probenecid, leaving 25 μl/well of this solution after the wash. Alternatively, cells can be loaded with the calcium indicator from Molecular Devices (Calcium 3 Assay Reagents, Cat #R7181) adding 5 μl of a 5× solution dye in Bath 1 containing 1 mM Probenecid (10 ml per dye flask cat#R7182 to generate a solution 20×) to 20 μl of the same buffer. After loading for 60 min, the experiment can be run without having to remove the dye.
(§4) Compounds are prepared at a 2× fold concentration in a 96-well plate (round bottom, Costar Corning cat#3656), by reconstituting the pre-spotted compounds in bath 1 containing 1 mM probenecid. The final concentration DMSO is 0.5%, and the amount of DMSO is normalized across the assay plate. To determine an agonist action of the compounds on muscarinic receptors, the reconstituted compounds are added (25 μl compound/well) to the cell assay plate (containing 25 μl/well) using the multi-channel robotic system of the FLIPR 3 Instrument (Molecular Devices, Sunnyvale, Calif.). To determine a functional inhibitory action of the compounds on muscarinic receptors, the reconstituted compounds are added (25 μl compound/well) to the assay plate and pre-incubated for 15 min prior to adding 25 μl of Carbachol at 3× the EC80 for each muscarinic subtype. Alternatively, the compounds can be co-applied simultaneously with the agonist. In both assay modes, the fluorescence is recorded for 60 sec (excitation wavelength is […] and emission wavelength 540 nm) using the FLIPR 3 instrument.
(§5) The potency, efficacy and selectivity of the muscarinic compounds were evaluated by screening the compound activity across the whole family (M1 to M5 cells). Compounds were also screened for activity on other proteins such as other GPCRs and ion channels to determine selectivity on M4 receptors.
(§6) Examples of activities and efficacies of the muscarinic compounds of formulae (I, I-A, and I-B) on modulating M1 and M4 receptors are shown below in Table 4. […]

The target in a further assay is T2, M4 muscarinic receptor (Homo sapiens, UniProt P08173).
T2 construct: expressed in transfected cells; host or cells: CHO
T2 sequence (P08173 1-479): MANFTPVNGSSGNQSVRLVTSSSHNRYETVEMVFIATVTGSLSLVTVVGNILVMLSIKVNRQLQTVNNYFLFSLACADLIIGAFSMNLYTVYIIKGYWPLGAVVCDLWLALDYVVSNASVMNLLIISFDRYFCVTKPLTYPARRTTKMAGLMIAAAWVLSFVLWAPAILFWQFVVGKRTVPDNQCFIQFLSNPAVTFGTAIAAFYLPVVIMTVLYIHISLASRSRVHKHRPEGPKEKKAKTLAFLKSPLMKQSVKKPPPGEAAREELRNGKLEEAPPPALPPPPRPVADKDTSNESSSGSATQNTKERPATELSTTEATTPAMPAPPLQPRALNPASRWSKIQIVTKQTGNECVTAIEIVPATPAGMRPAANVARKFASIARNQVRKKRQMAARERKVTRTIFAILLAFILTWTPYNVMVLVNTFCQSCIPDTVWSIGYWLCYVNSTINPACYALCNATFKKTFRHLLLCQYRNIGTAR
The experiment in a line: Functional mobilization of intracellular calcium (FLIPR) in CHO cells expressing M4. The following applies: for EC50: CHO cells expressing M4, calcium mobilization; for Emax: CHO, 100% efficacy is the maximum response obtained with the Carbachol control. It counts as cell-based. The method, then: as §1, §2, §3, §4, §5, §6
A general note: A change in cytosolic calcium serves as a functional read-out for many receptors and channels.

Structures are written as SMILES. Bounds are passed on as bounds.

As usually defined, the EC50 is the concentration giving half of the maximal effect. By Emax is commonly meant the maximal effect, on the per cent scale that the assay sets. In the case of `O=C1CCC2(CCN(CC3CC4C=CC3C4)CC2)c2ccccc2N1` (stereo not shown) [Compound 5], on M1 muscarinic receptor, the concentration for a half-maximal effect (EC50) was in the range of 2000 to 10000 nM and the maximum response (Emax) lay in the range of 25 to 100%. Also, on M4 muscarinic receptor, the 50% effective concentration (EC50) was < 2000 nM and the maximal response (Emax) lay in the range of 25 to 100%.

Regarding `O=C1CCC2(CCN(C3CC4CCC(C4)C3)CC2)c2ccccc2N1` (stereo not shown) [Compound 29], at M1 muscarinic receptor, the EC50 was < 2000 nM and the Emax was 25 to 100%. Besides, on M4 muscarinic receptor, the concentration giving a half-maximal response (EC50) was < 2000 nM and the maximal effect (Emax) was in the range of 25 to 100%.

Turning to `O=C1CCC2(CCN(C3CCCCCC3)CC2)c2ccccc2N1` [Compound 24, 1′-cycloheptyl-3,4-dihydrospiro[benzo[b]azepine-5,4′-piperidin]-2(1H)-one], on M1 muscarinic receptor, the EC50 was < 2000 nM and the Emax was in the range of 25 to 100%. For the same molecule, on M4 muscarinic receptor, the EC50 is < 2000 nM and the Emax lay within 25 to 100%.

`CN1C(=O)CCC2(CCN(C3CCCCCC3)CC2)c2ccccc21` [Compound 12]: on M1 muscarinic receptor, the 50% effective concentration (EC50) lay in the range of 2000 to 10000 nM and the Emax is 25 to 100%. At M4 muscarinic receptor, the concentration giving a half-maximal response (EC50) was < 2000 nM and the maximum response (Emax) lay within 25 to 100%.

`CN(C)C(=O)N1CCCC2(CCN(CCC(C)(C)C)CC2)c2ccccc21` [Compound 31]: on M1 muscarinic receptor, the EC50 was > 10000 nM and the maximal effect (Emax) is < 25%. Further, at M4 muscarinic receptor, the concentration for a half-maximal effect (EC50) is < 2000 nM and the Emax was 25 to 100%.

On to `CCOC(=O)N1C2CCC1CC(N1CCC3(CCCN(C(N)=O)c4ccccc43)CC1)C2` (stereo not shown) [Compound 22], for which, on M1 muscarinic receptor, the concentration giving a half-maximal response (EC50) was < 2000 nM and the Emax lay in the range of 25 to 100%. For the same molecule, on M4 muscarinic receptor, the 50% effective concentration (EC50) was < 2000 nM and the Emax lay within 25 to 100%.

Consider `NC(=O)N1CCCC2(CCN(C3C[C@@H]4CC[C@@H]3C4)CC2)c2ccccc21` (stereo partly shown) [Compound 26], for which, on M1 muscarinic receptor, the EC50 is > 10000 nM and the maximum response (Emax) was < 25%. On M4 muscarinic receptor, the EC50 was > 10000 nM and the Emax is < 25%.

On to `CN(C)C(=O)N1CCCC2(CCN(C3C[C@@H]4CC[C@@H]3C4)CC2)c2ccccc21` (stereo partly shown) [Compound 33], for which, on M1 muscarinic receptor, the EC50 is > 10000 nM and the maximum response (Emax) was < 25%. Moreover, at M4 muscarinic receptor, the concentration giving a half-maximal response (EC50) was > 10000 nM and the Emax is < 25%.

Regarding `CCOC(=O)N1CCC(N2CCC3(CCCN(C(N)=O)c4ccccc43)CC2)CC1` [Compound 8], on M1 muscarinic receptor, the EC50 is < 2000 nM and the Emax lay in the range of 25 to 100%. Further, at M4 muscarinic receptor, the EC50 fell in the range of 2000 to 10000 nM and the maximum response (Emax) was in the range of 25 to 100%.

As for `NC(=O)N1CCCC2(CCN(C3CC4CCC(C4)C3)CC2)c2ccccc21` (stereo not shown) [Compound 16], on M1 muscarinic receptor, the EC50 lay in the range of 2000 to 10000 nM and the Emax was in the range of 25 to 100%. Besides, at M4 muscarinic receptor, the EC50 was < 2000 nM and the maximum response (Emax) lay in the range of 25 to 100%.

As to `NC(=O)N1CCCC2(CCN(CC3CCCCC3)CC2)c2ccccc21` [Compound 20], on M1 muscarinic receptor, the EC50 is > 10000 nM and the maximal effect (Emax) was < 25%. Also, on M4 muscarinic receptor, the EC50 lay within 2000 to 10000 nM and the Emax is < 25%.

As to `CCOC(=O)N1C2CCC1CC(N1CCC3(CCC(=O)N(C)c4ccccc43)CC1)C2` (stereo not shown) [Compound 30], at M1 muscarinic receptor, the EC50 was < 2000 nM and the maximum response (Emax) was 25 to 100%. For the same molecule, on M4 muscarinic receptor, the EC50 is < 2000 nM and the Emax fell in the range of 25 to 100%.

On to `CCOC(=O)N1CCC(N2CCC3(CCCN(C(=O)N(C)C)c4ccccc43)CC2)CC1` [Compound 23], for which the 50% effective concentration (EC50) on M1 muscarinic receptor is 2000 to 10000 nM; at M4 muscarinic receptor, < 2000 nM. Further, the Emax on M1 muscarinic receptor and at M4 muscarinic receptor was 25 to 100% throughout.
